The values below come from BindingDB's records for doi:10.3109/14756369809035823 (Orstom, 1998).

As a reminder, the pIC50 is −log10 of the IC50, conventionally taken in molar units. Low values mean a high IC50, high ones a low IC50.

pIC50: −log10 of the molar value. “And” between values parts separate entries of the source, which are not always exact repeats. Identical values can stand only once.

For this assay, the target named is Trypanothione reductase (Crithidia fasciculata, UniProt P39040). Briefly: Inhibition Assay. As to conditions: pH 7.8; 25 °C. From the text: Crithidia fasciculata trypanothione reductase (cfTR) was purifed from E.coli using the expression system. The activity of the cfTR was observed from the rate of oxidation of the co-substrate NADPH to NADP+ as measured by a decrease in absorbance at 340nm.
Sequence of Trypanothione reductase (P39040 whole entry): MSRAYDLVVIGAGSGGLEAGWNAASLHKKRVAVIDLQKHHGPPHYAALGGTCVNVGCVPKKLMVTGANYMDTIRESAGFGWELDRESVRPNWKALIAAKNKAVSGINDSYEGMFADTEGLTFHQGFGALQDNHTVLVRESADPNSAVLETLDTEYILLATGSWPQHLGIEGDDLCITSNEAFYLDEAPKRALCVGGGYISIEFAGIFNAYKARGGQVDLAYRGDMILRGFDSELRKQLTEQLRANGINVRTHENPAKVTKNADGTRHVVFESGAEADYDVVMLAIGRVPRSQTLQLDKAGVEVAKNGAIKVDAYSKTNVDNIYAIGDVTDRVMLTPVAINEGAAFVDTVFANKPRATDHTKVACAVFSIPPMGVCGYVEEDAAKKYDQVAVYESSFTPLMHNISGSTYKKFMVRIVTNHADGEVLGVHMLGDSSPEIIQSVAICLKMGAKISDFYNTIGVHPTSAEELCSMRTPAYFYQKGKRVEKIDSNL
In turn, `COc1ccc2cc1Oc1ccc(cc1)C[C@H]1c3c(cc(OC)c(O)c3Oc3cc4c(cc3OC)CCN(C)[C@@H]4C2)CCN1C` gave a pIC50 of 4.26.
`COc1cc2c3cc1Oc1c(O)c(OC)cc4c1[C@H](Cc1ccc(OC)c(c1)-c1cc(ccc1O)C[C@H]3N(C)CC2)N(C)CC4`: the negative-log IC50 (pIC50) is 4.22.
The value for `COc1ccc2cc1Oc1ccc(cc1)C[C@H]1c3cc(c(OC)cc3CCN1C)Oc1c(OC)c(OC)cc3c1[C@@H](C2)N(C)CC3` was 3.91 and 3.63; that for `COc1cc2c3cc1Oc1c(O)c(OC)cc4c1[C@H](Cc1ccc(cc1)Oc1cc(ccc1O)C[C@H]3NCC2)N(C)CC4` (racemic) [Daphnoline (R,S)] was 4.30; that for `COc1cc2c3cc1Oc1cc(ccc1O)C[C@@H]1c4c(cc(OC)c(O)c4Oc4ccc(cc4)C[C@H]3N(C)CC2)CCN1C` [(-)-BEBEERINE] was 4.22.
Consider `COc1ccc2cc1Oc1ccc(cc1)C[C@H]1c3c(cc4c(c3Oc3cc5c(cc3OC)CCN(C)[C@H]5C2)OCO4)CCN1C` [Cepharanthine], for which the negative-log IC50 (pIC50) is 4.82.
The compound `COc1cc2c3c(c1OC)Oc1ccc(cc1)C[C@@H]1c4c(cc(OC)c(OC)c4Oc4ccc(cc4)C[C@H]3N(C)CC2)CCN1C` [Cycleanine (R,R)] showed a pIC50 of 3.52.
`COc1ccc2cc1Oc1ccc(cc1)C[C@H]1c3c(cc(O)c(OC)c3Oc3cc4c(cc3OC)CCN(C)[C@@H]4C2)CCN1C` [Gyrocarpine (S,R)] showed a pIC50 of 4.24.
`COc1ccc2cc1Oc1ccc(cc1)C[C@H]1c3cc(c(OC)cc3CCN1C)Oc1c(O)c(OC)cc3c1[C@@H](C2)N(C)CC3` [Limacine (R,R)] gave a pIC50 of 4.05.
In the case of `COc1cc2c(cc1O)[C@@H](Cc1ccc(Oc3cc(C[C@H]4NCCc5cc(OC)c(O)cc54)ccc3O)cc1)NCC2` [Lindoldhamine (R,R)], the negative-log IC50 (pIC50) is 4.57.
